The target of the assay is cytochrome c peroxidase (CcP) (Saccharomyces cerevisiae, UniProt P00431, R115A/T120I/D219G/W258F). In words: UV-visible optical titration of ferric enzyme. Format: binding.
Chain of cytochrome c peroxidase (CcP) (P00431 68-361 R115A/T120I/D219G/W258F): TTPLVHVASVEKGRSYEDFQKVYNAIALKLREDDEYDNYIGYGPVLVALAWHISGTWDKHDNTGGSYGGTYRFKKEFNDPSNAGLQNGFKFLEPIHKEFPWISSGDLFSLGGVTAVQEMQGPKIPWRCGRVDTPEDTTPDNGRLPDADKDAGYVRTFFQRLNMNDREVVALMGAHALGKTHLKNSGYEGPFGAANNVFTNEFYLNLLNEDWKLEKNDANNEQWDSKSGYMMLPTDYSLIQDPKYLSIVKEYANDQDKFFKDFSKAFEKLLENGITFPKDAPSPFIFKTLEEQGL

`N=C(N)NO` [NHG, N-hydroxyguanidine] displayed a Kd of 3.37 mM.

For the origin of these results see article PMC2902621 (Archives of biochemistry and biophysics, 2010).
